According to PubChem BioAssay (NCI):
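The compound was tested at five concentrations on cells cultured in 96-well plates, with a 48-hour exposure period. At the GI50, growth is halved. The concentration for full growth arrest is given as TGI.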

Legend:
Experiment in all cases: growth of human tumour cells (NCI), 48 h
786-0 renal = test system: 786-0 renal
A498 renal = test system: A498 renal
A549 NSCLC = test system: A549 NSCLC
ACHN renal = test system: ACHN renal
CAKI-1 renal = test system: CAKI-1 renal
CCRF-CEM leukemia = test system: CCRF-CEM leukemia
COLO 205 colon = test system: COLO 205 colon
DLD-1 colon = test system: DLD-1 colon
DMS 114 small cell lung = test system: DMS 114 small cell lung
DMS 273 small cell lung = test system: DMS 273 small cell lung
EKVX NSCLC = test system: EKVX NSCLC
HCC-2998 colon = test system: HCC-2998 colon
HCT-116 colon = test system: HCT-116 colon
HCT-15 colon = test system: HCT-15 colon
HL-60(TB) leukemia = test system: HL-60(TB) leukemia
HOP-62 NSCLC = test system: HOP-62 NSCLC
HOP-92 NSCLC = test system: HOP-92 NSCLC
HT29 colon = test system: HT29 colon
IGROV1 ovarian = test system: IGROV1 ovarian
K-562 leukemia = test system: K-562 leukemia
KM12 colon = test system: KM12 colon
KM20L2 colon = test system: KM20L2 colon
LOX IMVI melanoma = test system: LOX IMVI melanoma
LXFL 529 NSCLC = test system: LXFL 529 NSCLC
M14 melanoma = test system: M14 melanoma
M19-MEL melanoma = test system: M19-MEL melanoma
MALME-3M melanoma = test system: MALME-3M melanoma
MOLT-4 leukemia = test system: MOLT-4 leukemia
NCI-H226 lung = test system: NCI-H226 lung
NCI-H23 lung = test system: NCI-H23 lung
NCI-H460 lung = test system: NCI-H460 lung
NCI-H522 lung = test system: NCI-H522 lung
OVCAR-3 ovarian = test system: OVCAR-3 ovarian
OVCAR-4 ovarian = test system: OVCAR-4 ovarian
OVCAR-5 ovarian = test system: OVCAR-5 ovarian
OVCAR-8 ovarian = test system: OVCAR-8 ovarian
RPMI-8226 leukemia = test system: RPMI-8226 leukemia
RXF 393 renal = test system: RXF 393 renal
SF-268 CNS = test system: SF-268 CNS
SF-295 CNS = test system: SF-295 CNS
SF-539 CNS = test system: SF-539 CNS
SK-MEL-2 melanoma = test system: SK-MEL-2 melanoma
SK-MEL-28 melanoma = test system: SK-MEL-28 melanoma
SK-MEL-5 melanoma = test system: SK-MEL-5 melanoma
SK-OV-3 ovarian = test system: SK-OV-3 ovarian
SN12C renal = test system: SN12C renal
SNB-19 CNS = test system: SNB-19 CNS
SNB-75 CNS = test system: SNB-75 CNS
SNB-78 CNS = test system: SNB-78 CNS
SW-620 colon = test system: SW-620 colon
TK-10 renal = test system: TK-10 renal
U251 CNS = test system: U251 CNS
UACC-257 melanoma = test system: UACC-257 melanoma
UACC-62 melanoma = test system: UACC-62 melanoma
UO-31 renal = test system: UO-31 renal
XF 498 CNS = test system: XF 498 CNS

CCCCCCC[CH2][Sn]([Cl])([Cl])[CH2]CCCCCCC
GI50 (786-0 renal): 4.58 µM
TGI (786-0 renal): 17.1 µM
GI50 (A498 renal): 6.51 µM
TGI (A498 renal): 18.8 µM
GI50 (A549 NSCLC): 17.5 µM
TGI (A549 NSCLC): 34.3 µM
GI50 (ACHN renal): 7.17 µM
TGI (ACHN renal): 19.9 µM
GI50 (CAKI-1 renal): 11 µM
TGI (CAKI-1 renal): 23.2 µM
GI50 (CCRF-CEM leukemia): 3.27 µM
TGI (CCRF-CEM leukemia): 10.9 µM
GI50 (COLO 205 colon): 6 µM
TGI (COLO 205 colon): 17.3 µM
GI50 (DLD-1 colon): 5.37 µM
TGI (DLD-1 colon): 17.6 µM
GI50 (DMS 114 small cell lung): 3.93 µM
TGI (DMS 114 small cell lung): 13.9 µM
GI50 (DMS 273 small cell lung): 4.9 µM
TGI (DMS 273 small cell lung): 16.8 µM
GI50 (EKVX NSCLC): 10.4 µM
TGI (EKVX NSCLC): 22.2 µM
GI50 (HCC-2998 colon): 4.23 µM
TGI (HCC-2998 colon): 17 µM
GI50 (HCT-116 colon): 3.66 µM
TGI (HCT-116 colon): 15.3 µM
GI50 (HCT-15 colon): 5.69 µM
TGI (HCT-15 colon): 18.7 µM
GI50 (HL-60(TB) leukemia): 3.29 µM
TGI (HL-60(TB) leukemia): 11.2 µM
GI50 (HOP-62 NSCLC): 14.5 µM
TGI (HOP-62 NSCLC): 27.5 µM
GI50 (HOP-92 NSCLC): 5.27 µM
TGI (HOP-92 NSCLC): 18.4 µM
GI50 (HT29 colon): 6.83 µM
TGI (HT29 colon): 20 µM
GI50 (IGROV1 ovarian): 7.61 µM
TGI (IGROV1 ovarian): 20.3 µM
GI50 (K-562 leukemia): 3.66 µM
TGI (K-562 leukemia): 19.7 µM
GI50 (KM12 colon): 5.98 µM
TGI (KM12 colon): 18.8 µM
GI50 (KM20L2 colon): 11.1 µM
TGI (KM20L2 colon): 23.2 µM
GI50 (LOX IMVI melanoma): 3.56 µM
TGI (LOX IMVI melanoma): 11.5 µM
GI50 (LXFL 529 NSCLC): 3.05 µM
TGI (LXFL 529 NSCLC): 10.8 µM
GI50 (M14 melanoma): 6.94 µM
TGI (M14 melanoma): 19.5 µM
GI50 (M19-MEL melanoma): 9.31 µM
TGI (M19-MEL melanoma): 21.3 µM
GI50 (MALME-3M melanoma): 5.2 µM
TGI (MALME-3M melanoma): 18.1 µM
GI50 (MOLT-4 leukemia): 2960 nM
TGI (MOLT-4 leukemia): 10.5 µM
GI50 (NCI-H226 lung): 10.1 µM
TGI (NCI-H226 lung): 22.4 µM
GI50 (NCI-H23 lung): 6.84 µM
TGI (NCI-H23 lung): 18.8 µM
GI50 (NCI-H460 lung): 13.2 µM
TGI (NCI-H460 lung): 26.8 µM
GI50 (NCI-H522 lung): 2300 nM
TGI (NCI-H522 lung): 4.95 µM
GI50 (OVCAR-3 ovarian): 4.91 µM
TGI (OVCAR-3 ovarian): 17 µM
GI50 (OVCAR-4 ovarian): 10.5 µM
TGI (OVCAR-4 ovarian): 22.4 µM
GI50 (OVCAR-5 ovarian): 13.3 µM
TGI (OVCAR-5 ovarian): 26.2 µM
GI50 (OVCAR-8 ovarian): 4.46 µM
TGI (OVCAR-8 ovarian): 16.6 µM
GI50 (RPMI-8226 leukemia): 2240 nM
TGI (RPMI-8226 leukemia): 12.6 µM
GI50 (RXF 393 renal): 2700 nM
TGI (RXF 393 renal): 9.01 µM
GI50 (SF-268 CNS): 4.11 µM
TGI (SF-268 CNS): 15.4 µM
GI50 (SF-295 CNS): 12.5 µM
TGI (SF-295 CNS): 25 µM
GI50 (SF-539 CNS): 4.36 µM
TGI (SF-539 CNS): 16.6 µM
GI50 (SK-MEL-2 melanoma): 2450 nM
TGI (SK-MEL-2 melanoma): 7.47 µM
GI50 (SK-MEL-28 melanoma): 3.82 µM
TGI (SK-MEL-28 melanoma): 12.9 µM
GI50 (SK-MEL-5 melanoma): 6.88 µM
TGI (SK-MEL-5 melanoma): 19.4 µM
GI50 (SK-OV-3 ovarian): 16.6 µM
TGI (SK-OV-3 ovarian): 30.2 µM
GI50 (SN12C renal): 7.41 µM
TGI (SN12C renal): 19.9 µM
GI50 (SNB-19 CNS): 7.15 µM
TGI (SNB-19 CNS): 20 µM
GI50 (SNB-75 CNS): 3.67 µM
TGI (SNB-75 CNS): 18.1 µM
GI50 (SNB-78 CNS): 6.25 µM
TGI (SNB-78 CNS): 21.4 µM
GI50 (SW-620 colon): 6.66 µM
TGI (SW-620 colon): 19.3 µM
GI50 (TK-10 renal): 16 µM
TGI (TK-10 renal): 29.4 µM
GI50 (U251 CNS): 2210 nM
TGI (U251 CNS): 6.09 µM
GI50 (UACC-257 melanoma): 4.38 µM
TGI (UACC-257 melanoma): 15.9 µM
GI50 (UACC-62 melanoma): 2050 nM
TGI (UACC-62 melanoma): 4.97 µM
GI50 (UO-31 renal): 10.6 µM
TGI (UO-31 renal): 22.4 µM
GI50 (XF 498 CNS): 4.9 µM
TGI (XF 498 CNS): 16.5 µM
